According to ChEMBL document CHEMBL3608228, “Bisacremines A-D, Dimeric Acremines Produced by a Soil-Derived Acremonium persicinum Strain” (J Nat Prod, 2015):
Calls of active or inactive are those of the source. No cut-off for these calls is given here.

How the values were obtained:
[1] = tested on: Staphylococcus aureus; assay: Antibacterial activity against Staphylococcus aureus; format: functional, organism-based
[2] = tested on: HepG2; assay: Cytotoxicity against human HepG2 cells assessed as cell growth inhibition after 72 hrs by MTT assay; format: functional, cell-based; conditions: HepG2, 72 h
[3] = tested on: A549; assay: Cytotoxicity against human A549 cells assessed as cell growth inhibition after 72 hrs by MTT assay; format: functional, cell-based; conditions: A549, 72 h
[4] = tested on: HeLa; assay: Cytotoxicity against human HeLa cells assessed as cell growth inhibition after 72 hrs by MTT assay; format: functional, cell-based

Compound | Activity [1] | IC50 [2] [µM] | IC50 [3] [µM] | IC50 [4] [µM]
Cc1ccc(/C=C/[C@@]2(C)CC[C@](C)(/C=C/C3=C[C@H](O)[C@](C)(O)C[C@@H]3O)O2)cc1 | inactive | 31.1 | 41.3 | 9.3
Cc1ccc(/C=C/[C@]2(C)CC[C@](C)(/C=C/C3=C[C@H](O)[C@](C)(O)C[C@@H]3O)O2)cc1 | inactive | > 50 | > 50 | 46.1
Cc1ccc(/C=C/[C@@]2(C)CC[C@@](C)(/C=C/C3=C[C@H](O)[C@](C)(O)C[C@@H]3O)O2)cc1 | inactive | > 50 | > 50 | 31.1
Cc1ccc(/C=C/[C@]2(C)CC[C@@](C)(/C=C/C3=C[C@H](O)[C@](C)(O)C[C@@H]3O)O2)cc1 | inactive | > 50 | > 50 | 10.7
